The values below are quoted from earlier work in US20080214592A1, “METHODS OF TREATING ANXIETY DISORDERS” (Orexigen Therapeutics, Inc., priority 2005, published 2008).

Structures are written as SMILES.

With `CNCCC(Oc1ccc(C(F)(F)F)cc1)c1ccccc1` (stereo not shown) [Fluoxetine, fluoxetine], the physiological half life entry is “about 24 hours”.
